{"source": "patent US20230085307A1", "about": "“PYRIDAZINONE COMPOUND AND HERBICIDE” (NISSAN CHEMICAL CORPORATION, priority 2019, published 2023)", "key": {"[1]": {"system": "late watergrass", "test": "Test Example 1: herbicidal activity, application before weed generation under submerged conditions (Table 16, symbol A)", "type": "in vivo, late watergrass (Echinochloa oryzicola)", "conditions": "320 g/ha applied herbicide", "outline": "(§1)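 Submerged Wagner pots (alluvial soil, 4 cm water) sown with weed seeds and planted with 2.5-leaf rice seedlings; emulsifiable concentrate diluted in water applied to water surface on sowing day. Held in greenhouse at 25-30 °C; injury scored 0-5 by herbicidal rate after three weeks.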"}, "[2]": {"system": "Japanese bulrush", "test": "Test Example 1: herbicidal activity, application before weed generation under submerged conditions (Table 16, symbol B)", "type": "in vivo, Japanese bulrush (Schoenoplectus juncoides)", "conditions": "320 g/ha applied herbicide", "outline": "as §1"}, "[3]": {"system": "oval-leafed pondweed", "test": "Test Example 1: herbicidal activity, application before weed generation under submerged conditions (Table 16, symbol C)", "type": "in vivo, oval-leafed pondweed (Monochoria vaginalis)", "conditions": "320 g/ha applied herbicide", "outline": "as §1"}, "[4]": {"system": "barnyard grass", "test": "Test Example 3: herbicidal effect by foliage application, Wagner pot (Table 18, symbol H)", "type": "in vivo, barnyard grass (Echinochloa crus-galli)", "conditions": "amount of applied herbicide 320 g/ha", "outline": "(§2)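 Plants were sown in alluvial soil held under 0.1–0.5 cm standing water and grown 14 days in a greenhouse at 25–30 °C. An emulsifiable formulation, water-diluted to the set dose, was then sprayed onto the foliage, and effects were scored three weeks later using previously defined criteria.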"}, "[5]": {"system": "Chinese sprangletop", "test": "Test Example 3: herbicidal effect by foliage application, Wagner pot (Table 18, symbol D)", "type": "in vivo, chinese sprangletop (Leptochloa chinensis)", "conditions": "amount of applied herbicide 320 g/ha", "outline": "as §2"}, "[6]": {"system": "rice flat sedge", "test": "Test Example 3: herbicidal effect by foliage application, Wagner pot (Table 18, symbol E)", "type": "in vivo, rice flat sedge (Cyperus iria)", "conditions": "amount of applied herbicide 320 g/ha", "outline": "as §2"}, "[7]": {"system": "southern crabgrass", "test": "Test Example 4: herbicidal effect by soil treatment (Table 19, symbol F)", "type": "in vivo, southern crabgrass (Digitaria ciliaris)", "conditions": "amount of applied herbicide 320 g/ha", "outline": "(§3)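 Seeds were sown in sterilized diluvial soil and covered with about 1.5 cm of soil. An emulsion formulation diluted with water to a predetermined herbicide amount was sprayed evenly onto the soil surface. Plants grew in a greenhouse at 25° C. to 30° C., and the effect was scored three weeks after application using criteria from an earlier test.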"}, "[8]": {"system": "green foxtail", "test": "Test Example 4: herbicidal effect by soil treatment (Table 19, symbol G)", "type": "in vivo, green foxtail (Setaria viridis)", "conditions": "amount of applied herbicide 320 g/ha", "outline": "as §3"}, "[9]": {"system": "barnyard grass", "test": "Test Example 4: herbicidal effect by soil treatment (Table 19, symbol H)", "type": "in vivo, barnyard grass (Echinochloa crus-galli)", "conditions": "amount of applied herbicide 320 g/ha", "outline": "as §3"}, "[10]": {"system": "wild oat", "test": "Test Example 4: herbicidal effect by soil treatment (Table 19, symbol I)", "type": "in vivo, wild oat (Avena fatua)", "conditions": "amount of applied herbicide 320 g/ha", "outline": "as §3"}, "[11]": {"system": "blackgrass", "test": "Test Example 4: herbicidal effect by soil treatment (Table 19, symbol J)", "type": "in vivo, blackgrass (Alopecurus myosuroides)", "conditions": "amount of applied herbicide 320 g/ha", "outline": "as §3"}, "[12]": {"system": "Italian ryegrass", "test": "Test Example 4: herbicidal effect by soil treatment (Table 19, symbol K)", "type": "in vivo, Italian ryegrass (Lolium multiflorum)", "conditions": "amount of applied herbicide 320 g/ha", "outline": "as §3"}, "[13]": {"system": "windgrass", "test": "Test Example 4: herbicidal effect by soil treatment (Table 19, symbol L)", "type": "in vivo, windgrass (Apera spica-venti)", "conditions": "amount of applied herbicide 320 g/ha", "outline": "as §3"}, "[14]": {"system": "velvetleaf", "test": "Test Example 4: herbicidal effect by soil treatment (Table 19, symbol M)", "type": "in vivo, velvetleaf (Abutilon theophrasti)", "conditions": "amount of applied herbicide 320 g/ha", "outline": "as §3"}, "[15]": {"system": "redroot pigweed", "test": "Test Example 4: herbicidal effect by soil treatment (Table 19, symbol N)", "type": "in vivo, redroot pigweed (Amaranthus retroflexus)", "conditions": "amount of applied herbicide 320 g/ha", "outline": "as §3"}, "[16]": {"system": "lambsquarters", "test": "Test Example 4: herbicidal effect by soil treatment (Table 19, symbol O)", "type": "in vivo, lambsquarters (Chenopodium album)", "conditions": "amount of applied herbicide 320 g/ha", "outline": "as §3"}, "[17]": {"system": "chickweed", "test": "Test Example 4: herbicidal effect by soil treatment (Table 19, symbol P)", "type": "in vivo, common chickweed (Stellaria media)", "conditions": "amount of applied herbicide 320 g/ha", "outline": "as §3"}, "[18]": {"system": "false cleavers", "test": "Test Example 4: herbicidal effect by soil treatment (Table 19, symbol Q)", "type": "in vivo, false cleavers (Galium spurium)", "conditions": "amount of applied herbicide 320 g/ha", "outline": "as §3"}, "[19]": {"system": "persian speedwell", "test": "Test Example 4: herbicidal effect by soil treatment (Table 19, symbol R)", "type": "in vivo, Persian speedwell (Veronica persica)", "conditions": "amount of applied herbicide 320 g/ha", "outline": "as §3"}, "[20]": {"system": "southern crabgrass", "test": "Test Example 5: herbicidal effect by foliage application, plastic box (Table 20, symbol F)", "type": "in vivo, southern crabgrass (Digitaria ciliaris)", "conditions": "foliage application, AAH 320 g/ha, evaluated three weeks after application", "outline": "(§4)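 Plants sown in sterilized diluvial soil and grown 14 days in a greenhouse at 25° C to 30° C, then sprayed on the foliage with the compound's emulsion diluted in water to a predetermined herbicide amount. Injury to weeds and crops scored three weeks after application on a visual rating scale.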"}, "[21]": {"system": "green foxtail", "test": "Test Example 5: herbicidal effect by foliage application, plastic box (Table 20, symbol G)", "type": "in vivo, green foxtail (Setaria viridis)", "conditions": "foliage application, AAH 320 g/ha, evaluated three weeks after application", "outline": "as §4"}, "[22]": {"system": "barnyard grass", "test": "Test Example 5: herbicidal effect by foliage application, plastic box (Table 20, symbol H)", "type": "in vivo, barnyard grass (Echinochloa crus-galli)", "conditions": "foliage application, AAH 320 g/ha, evaluated three weeks after application", "outline": "as §4"}, "[23]": {"system": "wild oat", "test": "Test Example 5: herbicidal effect by foliage application, plastic box (Table 20, symbol I)", "type": "in vivo, wild oat (Avena fatua)", "conditions": "foliage application, AAH 320 g/ha, evaluated three weeks after application", "outline": "as §4"}, "[24]": {"system": "blackgrass", "test": "Test Example 5: herbicidal effect by foliage application, plastic box (Table 20, symbol J)", "type": "in vivo, blackgrass (Alopecurus myosuroides)", "conditions": "foliage application, AAH 320 g/ha, evaluated three weeks after application", "outline": "as §4"}, "[25]": {"system": "Italian ryegrass", "test": "Test Example 5: herbicidal effect by foliage application, plastic box (Table 20, symbol K)", "type": "in vivo, Italian ryegrass (Lolium multiflorum)", "conditions": "foliage application, AAH 320 g/ha, evaluated three weeks after application", "outline": "as §4"}, "[26]": {"system": "windgrass", "test": "Test Example 5: herbicidal effect by foliage application, plastic box (Table 20, symbol L)", "type": "in vivo, windgrass (Apera spica-venti)", "conditions": "foliage application, AAH 320 g/ha, evaluated three weeks after application", "outline": "as §4"}, "[27]": {"system": "velvetleaf", "test": "Test Example 5: herbicidal effect by foliage application, plastic box (Table 20, symbol M)", "type": "in vivo, velvetleaf (Abutilon theophrasti)", "conditions": "foliage application, AAH 320 g/ha, evaluated three weeks after application", "outline": "as §4"}, "[28]": {"system": "redroot pigweed", "test": "Test Example 5: herbicidal effect by foliage application, plastic box (Table 20, symbol N)", "type": "in vivo, redroot pigweed (Amaranthus retroflexus)", "conditions": "foliage application, AAH 320 g/ha, evaluated three weeks after application", "outline": "as §4"}, "[29]": {"system": "lambsquarters", "test": "Test Example 5: herbicidal effect by foliage application, plastic box (Table 20, symbol O)", "type": "in vivo, lambsquarters (Chenopodium album)", "conditions": "foliage application, AAH 320 g/ha, evaluated three weeks after application", "outline": "as §4"}, "[30]": {"system": "chickweed", "test": "Test Example 5: herbicidal effect by foliage application, plastic box (Table 20, symbol P)", "type": "in vivo, common chickweed (Stellaria media)", "conditions": "foliage application, AAH 320 g/ha, evaluated three weeks after application", "outline": "as §4"}, "[31]": {"system": "persian speedwell", "test": "Test Example 5: herbicidal effect by foliage application, plastic box (Table 20, symbol R)", "type": "in vivo, Persian speedwell (Veronica persica)", "conditions": "foliage application, AAH 320 g/ha, evaluated three weeks after application", "outline": "as §4"}}, "data": [{"smiles": "CSCCSCc1ccc(-c2sc3ccc(F)cc3c2-c2c(O)c(C)nn(C)c2=O)cc1", "note": "[2-329]", "values": [{"measurement": "Herbicidal effect on A: late watergrass (grade 0-5)", "setting": "[1]", "value": "2 (Herbicidal rate of 20% or more and less than 40%)"}, {"measurement": "Herbicidal effect on B: Japanese bulrush (grade 0-5)", "setting": "[2]", "value": "0 (Herbicidal rate of 5% or less (almost no effect))"}, {"measurement": "Herbicidal effect on C: oval-leafed pondweed (grade 0-5)", "setting": "[3]", "value": "0 (Herbicidal rate of 5% or less (almost no effect))"}, {"measurement": "herbicidal effect on H: barnyard grass", "setting": "[4]", "value": "5 (Herbicidal rate of 90% or more (almost completely withered))"}, {"measurement": "herbicidal effect on D: Chinese sprangletop", "setting": "[5]", "value": "4 (Herbicidal rate of 70% or more and less than 90%)"}, {"measurement": "herbicidal effect on E: rice flat sedge", "setting": "[6]", "value": "4 (Herbicidal rate of 70% or more and less than 90%)"}, {"measurement": "herbicidal effect on F: southern crabgrass", "setting": "[7]", "value": "0 (Herbicidal rate of 5% or less (almost no effect))"}, {"measurement": "herbicidal effect on G: green foxtail", "setting": "[8]", "value": "0 (Herbicidal rate of 5% or less (almost no effect))"}, {"measurement": "herbicidal effect on H: barnyard grass", "setting": "[9]", "value": "0 (Herbicidal rate of 5% or less (almost no effect))"}, {"measurement": "herbicidal effect on I: wild oat", "setting": "[10]", "value": "0 (Herbicidal rate of 5% or less (almost no effect))"}, {"measurement": "herbicidal effect on J: blackgrass", "setting": "[11]", "value": "0 (Herbicidal rate of 5% or less (almost no effect))"}, {"measurement": "herbicidal effect on K: Italian ryegrass", "setting": "[12]", "value": "0 (Herbicidal rate of 5% or less (almost no effect))"}, {"measurement": "herbicidal effect on L: windgrass", "setting": "[13]", "value": "0 (Herbicidal rate of 5% or less (almost no effect))"}, {"measurement": "herbicidal effect on M: velvetleaf", "setting": "[14]", "value": "0 (Herbicidal rate of 5% or less (almost no effect))"}, {"measurement": "herbicidal effect on N: redroot pigweed", "setting": "[15]", "value": "3 (Herbicidal rate of 40% or more and less than 70%)"}, {"measurement": "herbicidal effect on O: lambsquarters", "setting": "[16]", "value": "0 (Herbicidal rate of 5% or less (almost no effect))"}, {"measurement": "herbicidal effect on P: chickweed", "setting": "[17]", "value": "0 (Herbicidal rate of 5% or less (almost no effect))"}, {"measurement": "herbicidal effect on Q: false cleavers", "setting": "[18]", "value": "0 (Herbicidal rate of 5% or less (almost no effect))"}, {"measurement": "herbicidal effect on R: persian speedwell", "setting": "[19]", "value": "0 (Herbicidal rate of 5% or less (almost no effect))"}, {"measurement": "F: southern crabgrass, herbicidal effect (criteria 0-5)", "setting": "[20]", "value": "5 (Herbicidal rate of 90% or more (almost completely withered))"}, {"measurement": "G: green foxtail, herbicidal effect (criteria 0-5)", "setting": "[21]", "value": "5 (Herbicidal rate of 90% or more (almost completely withered))"}, {"measurement": "H: barnyard grass, herbicidal effect (criteria 0-5)", "setting": "[22]", "value": "4 (Herbicidal rate of 70% or more and less than 90%)"}, {"measurement": "I: wild oat, herbicidal effect (criteria 0-5)", "setting": "[23]", "value": "3 (Herbicidal rate of 40% or more and less than 70%)"}, {"measurement": "J: blackgrass, herbicidal effect (criteria 0-5)", "setting": "[24]", "value": "4 (Herbicidal rate of 70% or more and less than 90%)"}, {"measurement": "K: Italian ryegrass, herbicidal effect (criteria 0-5)", "setting": "[25]", "value": "4 (Herbicidal rate of 70% or more and less than 90%)"}, {"measurement": "L: windgrass, herbicidal effect (criteria 0-5)", "setting": "[26]", "value": "5 (Herbicidal rate of 90% or more (almost completely withered))"}, {"measurement": "M: velvetleaf, herbicidal effect (criteria 0-5)", "setting": "[27]", "value": "5 (Herbicidal rate of 90% or more (almost completely withered))"}, {"measurement": "N: redroot pigweed, herbicidal effect (criteria 0-5)", "setting": "[28]", "value": "5 (Herbicidal rate of 90% or more (almost completely withered))"}, {"measurement": "O: lambsquarters, herbicidal effect (criteria 0-5)", "setting": "[29]", "value": "4 (Herbicidal rate of 70% or more and less than 90%)"}, {"measurement": "P: chickweed, herbicidal effect (criteria 0-5)", "setting": "[30]", "value": "5 (Herbicidal rate of 90% or more (almost completely withered))"}, {"measurement": "R: persian speedwell, herbicidal effect (criteria 0-5)", "setting": "[31]", "value": "5 (Herbicidal rate of 90% or more (almost completely withered))"}]}]}
